1 compound from article PMC9134009 (RSC Advances, 2021) can be followed below.

The structures appear in SMILES notation.

For this test, the system named is human gastric cancer cell line SGC7901. As to the kind of experiment: CCK-8 in vitro cytotoxicity test, SGC7901. In kind it is cell-based. The note with it: read-out: IC50 (nM) SGC7901; CCK-8, 72 h exposure, n = 3.

Turning to `N.N.[Cl][Pt][Cl]` [cisplatin], the IC50 came out at 927 ± 77.6 nM.

The IC50 is the point on the concentration scale where inhibition reaches its midpoint.
